Here are results for two compounds from patent US6413937B1, “Combinations for use in increasing the potency of a substrate for multidrug resistance related protein” (Dublin City University and Enterprise Ireland, priority 1996, dated 2002).

For one experiment, the system named is DLKP cell line. Kind of experiment: miniaturised in vitro colorimetric cell survival assay (acid phosphatase end-point), DLKP. The class given is cell-based, human. Summed up:
(§1)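 Cells plated at 1000 per well, attached overnight, then exposed to drugs alone or in NSAID/chemotherapeutic combinations for five days. Cell number measured by acid phosphatase end-point with p-nitrophenol phosphate, NaOH colour development, read at 405 nm (ref 620 nm). Survival given as mean ±S.D. of at least three experiments.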

The next experiment concerns DLKP cells. Kind of experiment: Example 5 miniaturised in vitro cell toxicity assay, DLKP. The class given is cell-based, human. As for the experimental part: For the monolayer cell lines miniaturised in vitro assays were used to determine drug toxicity. On Day I cells were seeded at 1×10^3 cells/well in a 96-well plate and left to attach overnight. Drug was added on Day 2, and the assay was terminated on Day 7. Cell number was then evaluated by using one of two colorimetric end-point […]: the acid phosphatase assay (Martin, A., and Clynes, M. (1991); In vitro Cell and Development Biology, 27A: 183-184) or the crystal violet dye elution assay (Martin, A., and Clynes, M. (1993); Cytotechnology, 11:49-58). All assays were performed in triplicate.

Another experiment concerns A549 cell line. Kind of experiment: miniaturised in vitro colorimetric cell survival assay (acid phosphatase end-point), A549. In kind it is cell-based, human. The note with it: alone or + Adriamycin 40 ng/ml. The procedure, abridged: as §1
A further experiment concerns COR L23 R (MRP+) cells. The note with it: doxorubicin 10 mg/ml alone or with sulindac 20 mg/ml, 1, 2, 4 h, FIG. 3.
For experiment [1], the system named is GST prepared from DLKP cells. The experiment in a line: total GST assay with 1-chloro-2,4-dinitrobenzene. In kind it is biochemical, human. As for the experimental part:
The other NSAIDs were tested in a total GST assay (Habig, W. H., and Jakoby, W. B., (1981); Methods Enzymol., 77: 218-231). Total cellular GST activity was assayed, using 1-chloro-2,4-dinitrobenzene as a substrate, according to the method of Habig, W. H., and Jakoby, W. B., (1981); supra. Due to spectrophotometric interference at 340 nm, caused by the majority of the NSAIDs, the assays were all performed at 360 nm, without any apparent effect on the rate of the control reaction The results are shown in Table 5.

For another experiment, the system named is MRP-specific substrates. Kind of experiment: screen for enhancement of toxicity of MRP substrates by NSAIDs. In kind it is cell-based. The note with it: summary statements.
Another experiment has as its target T1, MRP pump (Homo sapiens, UniProt P33527).
T1 construct: inside-out plasma membrane vesicles prepared from HL60ADR cells; endogenous in cells; host or cells: HL60ADR cells (plasma membrane vesicles)
Kind of experiment: ATP-dependent transport of [3H]LTC4 into inside-out plasma membrane vesicles from HL60ADR cells. In kind it is biochemical. The note with it: for MRP-pump inhibitory activity: conclusion from Table 4. As for the experimental part:
To determine if the NSAIDs were acting directly on the MRP pump the uptake of [^3H]LTC4 into inside-out plasma membrane vesicles prepared from HL60ADR cells was examined using a rapid filtration procedure (Ishikawa,T., et al. (1994); J. Biol. Chem. 269 (46); 29085-29093). ATP-dependent transport of [^3H]LTC4 into the membrane vesicles was measured by a rapid filtration method using a Millipore sampling manifold. The membrane vesicles were thawed at 37° C. before use and kept on ice. The reaction components consisted of 0.25 M sucrose/10 mM Tris.HCl pH 7.4/1 mM ATP/10 mM MgCl2/10 mM creatine phosphate/ 110 μg/ml creatine kinase and 10 nM [^3H]LTC4, with 50 μg of the inside-out vesicle preparation, in a final volume of 110 μl. This suspension was incubated at 37° C., with gentle mixing, and aliquots, 20 μl, were taken at the indicated points. Those aliquots were diluted in 1 ml of ice-cold incubation buffer before being applied to 0.22 μm Millipore GSWP nitrocellulose filters, pre-soaked in ice-cold incubation buffer, under suction. The filters were subsequently washed with 3 ml ice-cold incubation buffer, and absorbed radioactivity was measured using a scintillation counter (Beckman). In control experiments ATP was replaced with 5μ-AMP to determine the ATP-dependent transport.

Experiment [2] has as its system murine and human cultured tumour cells. The following applies: non-toxic concentrations of indomethacin; in vitro; cited from earlier work.
A further experiment has as its system OAW42-SR cell line. Kind of experiment: miniaturised in vitro colorimetric cell survival assay, LRP overexpressing OAW42-SR. In kind it is cell-based, human. The following applies: alone or + Adriamycin 147 ng/ml. The procedure: All the results presented in this Example for the DLKP, A549 and OAW42-SR cell lines were derived using the same miniaturised in vitro calorimetric assay system. On Day 1 of the assay 1000 cells/well/100 μl were plated into 96-well plates. Cells were allowed to attach overnight and cell viability was visually assessed. On Day 2 the two drugs (i.e. NSAID plus chemotherapeutic drug) to be analysed were added onto the cells. The individual drugs were added separately in 50 μl quantities (4× stocks, to take into account the dilution effect of having 200 μl final volume in each well). The drugs were left on the cells for five further days (Day 7) and cell number was determined using the acid phosphatase end-point assay which uses p-nitrophenol phosphate as substrate (Martin, A. and Clynes, M. (1991) In Vitro Dev. Biol., 27A, 183-184). On Day 7 the culture medium was removed from the cells and they were washed once with phosphate buffered saline (PBS). […] After the incubation period 50 μl of 1N NaOH was added to each well to develop the colour. The plates were then read at 405 nm (reference 620 nm) on an ELISA plate-reader. […] All results are the cell survival means ±S.D. from a minimum of three experiments.

[3] abbreviates: read-out: % inhibition of transport of [3H]LTC4.

“Also recorded” adds a separate entry of the source.

T1 sequence (P33527 whole entry): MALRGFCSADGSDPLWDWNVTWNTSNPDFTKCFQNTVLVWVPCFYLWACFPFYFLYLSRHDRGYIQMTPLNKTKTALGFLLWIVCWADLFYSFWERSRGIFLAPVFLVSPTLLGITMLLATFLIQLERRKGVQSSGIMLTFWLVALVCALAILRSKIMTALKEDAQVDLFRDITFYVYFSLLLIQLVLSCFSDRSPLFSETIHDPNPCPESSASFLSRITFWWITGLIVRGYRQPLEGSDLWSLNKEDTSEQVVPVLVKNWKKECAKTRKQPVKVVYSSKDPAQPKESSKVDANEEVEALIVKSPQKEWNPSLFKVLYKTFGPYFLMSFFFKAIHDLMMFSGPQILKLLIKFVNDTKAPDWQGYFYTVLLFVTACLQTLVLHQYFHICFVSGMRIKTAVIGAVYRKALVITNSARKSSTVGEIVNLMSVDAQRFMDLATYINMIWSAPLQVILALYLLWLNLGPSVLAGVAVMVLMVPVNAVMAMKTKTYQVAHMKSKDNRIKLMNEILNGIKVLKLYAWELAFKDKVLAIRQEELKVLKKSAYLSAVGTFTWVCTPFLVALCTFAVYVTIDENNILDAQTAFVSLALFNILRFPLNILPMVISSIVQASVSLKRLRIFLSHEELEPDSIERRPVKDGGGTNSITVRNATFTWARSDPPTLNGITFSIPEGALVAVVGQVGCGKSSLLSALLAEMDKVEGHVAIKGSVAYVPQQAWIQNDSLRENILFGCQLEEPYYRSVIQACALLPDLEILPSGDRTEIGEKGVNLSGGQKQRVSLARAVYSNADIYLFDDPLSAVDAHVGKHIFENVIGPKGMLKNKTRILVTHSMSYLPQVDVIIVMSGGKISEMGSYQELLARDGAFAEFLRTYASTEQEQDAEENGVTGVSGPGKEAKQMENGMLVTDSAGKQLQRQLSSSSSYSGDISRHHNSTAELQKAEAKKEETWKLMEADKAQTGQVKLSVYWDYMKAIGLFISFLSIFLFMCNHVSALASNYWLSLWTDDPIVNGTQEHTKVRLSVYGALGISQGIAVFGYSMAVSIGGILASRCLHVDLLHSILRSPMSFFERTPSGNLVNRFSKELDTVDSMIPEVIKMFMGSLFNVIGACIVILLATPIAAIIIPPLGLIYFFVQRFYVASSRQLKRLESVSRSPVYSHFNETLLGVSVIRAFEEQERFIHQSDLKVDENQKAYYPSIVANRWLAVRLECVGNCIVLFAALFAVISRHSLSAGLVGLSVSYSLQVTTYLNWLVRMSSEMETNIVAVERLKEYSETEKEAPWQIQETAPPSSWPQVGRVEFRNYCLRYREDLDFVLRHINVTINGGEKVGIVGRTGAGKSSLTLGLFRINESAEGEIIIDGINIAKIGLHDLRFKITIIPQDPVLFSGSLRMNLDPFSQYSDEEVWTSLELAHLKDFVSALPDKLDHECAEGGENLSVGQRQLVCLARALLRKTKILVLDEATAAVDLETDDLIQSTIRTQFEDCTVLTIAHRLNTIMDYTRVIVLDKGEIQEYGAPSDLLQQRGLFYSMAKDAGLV
Procedure for COR L23 R (MRP+) cells: 10^6 COR L23 P (parental non-MRP resistant, MRP−) or COR L23 R (MRP resistant, MRP+) cells were added to 75 cm^3 vented flasks containing HEPES buffered Rosemount Park Memorial Institute (RPMI) medium and maintained at 37° C. in a 5% CO2 atmosphere. […] After three days of growth, doxorubicin (final concentration 10 mg/ml), sulindac (final concentration 20 mg/ml) or doxorubicin and sulindac were added to individual flasks. Samples were taken after 1, 2 and 4 h. and assayed for drug content.
The contents of each flask were washed twice with 5 ml of PBS and stored at −70° C. The flasks were thawed and 100 μl of water and 100 μl of 33% silver nitrate added to each and mixed for 5 min. […]
The extract was resuspended in 50 μl of methanol in the sample vial and loaded into the HPLC autosampler. […] The mobile phases were pumped through a C18 reversed-phase Ultrasphere XL (Beckman) HPLC column (4.6×70 mm) with absorbance measured at 253 nm. […] The amount of doxorubicin and sulindac present was quantified by measuring the peak height of these drugs and the internal standard. […] The concentration of doxorubicin in the samples was calculated from the) nd development standard line using the peak height ratio. The sulindac concentrations were calculated by the same method.

Regarding `CC1=C(CC(=O)O)c2cc(F)ccc2/C1=C\c1ccc([S+](C)[O-])cc1` (stereo not drawn) [Sulindac, sulindac], the “% cell survival” value in the experiment on DLKP cell line (ii) Sulindac 1.5 μg/ml, alone or + Vincristine 1.0 ng/ml) is 111.6 ± 9.7%; in the experiment on DLKP cell line (ii) Sulindac 3 μg/ml, alone or + Vincristine 1.0 ng/ml) it was 108.45 ± 10.6%; with DLKP cell line (ii) Sulindac 6 μg/ml, alone or + Vincristine 1.0 ng/ml), 114.1 ± 3.9%; in the experiment with DLKP cell line (iii) Sulindac 1.5 μg/ml, alone or + VP-16 100 ng/ml), 95.07 ± 1.6%; in the experiment on DLKP cell line (iii) Sulindac 3 μg/ml, alone or + VP-16 100 ng/ml) it was 93.68 ± 2.0%; in the experiment with DLKP cell line (iii) Sulindac 6 μg/ml, alone or + VP-16 100 ng/ml) it was 90.75 ± 3.3%. For the same compound, the “% cell survival” value is reported as 99.70 ± 7.7% in the experiment on DLKP cell line (iv) Sulindac 1.5 μg/ml, alone or + 5-FU 0.5 μg/ml); 98.79 ± 8.8% with DLKP cell line (iv) Sulindac 3 μg/ml, alone or + 5-FU 0.5 μg/ml); 93.61 ± 5.9% with DLKP cell line (iv) Sulindac 6 μg/ml, alone or + 5-FU 0.5 μg/ml); 96.51 ± 5.3% in the experiment with DLKP cell line (vii) Sulindac 1.5 μg/ml, alone or + PAT 1.5 μg/ml); 99.99 ± 2.9% in the experiment with DLKP cell line (vii) Sulindac 3.0 μg/ml, alone or + PAT 1.5 μg/ml); 94.23 ± 1.2% in the experiment with DLKP cell line (vii) Sulindac 6.0 μg/ml, alone or + PAT 1.5 μg/ml). Moreover, the “% cell survival” value with DLKP cells (Sulindac 1.5 μg/ml, alone or + Epirubicin 1 ng/ml) is listed as 99.92 ± 3.3%; with DLKP cells (Sulindac 3.0 μg/ml, alone or + Epirubicin 1 ng/ml), 100.29 ± 3.2%; in the experiment with DLKP cells (Sulindac 6.0 μg/ml, alone or + Epirubicin 1 ng/ml), 100.07 ± 3.6%; in the experiment on A549 cell line (xi) Sulindac 1.50 μg/ml), 100.00 ± 13.20%; in the experiment on A549 cell line (xi) Sulindac 3.20 μg/ml), 101.00 ± 12.14%; in the experiment with A549 cell line (xi) Sulindac 6.30 μg/ml) it was 96.01 ± 5.36%. Also, the “doxorubicin level in the cells” value with COR L23 R (MRP+) cells was “the doxorubicin level in the cells is increased to near that found in the MRP—cells”. For the same compound, the “% Inhibition of GST” value in experiment [1] (0.25 mM) was 42.6%. The “enhancement of toxicity of MRP substrates” value with MRP-specific substrates is on record as “have been found to enhance the toxicity of MRP-specific substrates”. Moreover, 45 µM produced 25% inhibition on MRP pump (45 μM). Besides, the inhibition at 89 µM at MRP pump (89 μM) was found to be 69%. For the same compound, the MRP-pump inhibitory activity result at MRP pump was “have MRP-pump inhibitory activity”.
Turning to `COc1ccc2c(c1)c(CC(=O)O)c(C)n2C(=O)c1ccc(Cl)cc1` [Indomethacin, indomethacin], the “% cell survival” value was 102.06 ± 5.11% in the experiment on DLKP cells (Indomethacin 0.6 μg/ml, alone or + Teniposide 6.25 ng/ml); 101.28 ± 5.12% with DLKP cells (Indomethacin 1.25 μg/ml, alone or + Teniposide 6.25 ng/ml); 96.18 ± 3.43% in the experiment on DLKP cells (Indomethacin 2.5 μg/ml, alone or + Teniposide 6.25 ng/ml); 92.38 ± 13.30% in the experiment with A549 cell line (ix) Indomethacin 0.60 μg/ml); 87.54 ± 13.07% in the experiment with A549 cell line (ix) Indomethacin 1.20 μg/ml); 92.18 ± 7.09% in the experiment with A549 cell line (ix) Indomethacin 2.40 μg/ml). Besides, the “% cell survival” value amounted to 99.26 ± 3.7% in the experiment with OAW42-SR cell line (vi) Indomethacin 0.625 μg/ml), 97.67 ± 1.3% in the experiment on OAW42-SR cell line (vi) Indomethacin 1.25 μg/ml) and 95.60 ± 3.3% in the experiment on OAW42-SR cell line (vi) Indomethacin 2.5 μg/ml). The “% Inhibition of GST” value in experiment [1] (0.4 mM) was 54%. The “enhancement of VP-16 sensitivity” value in experiment [2] was “enhanced the VP-16 sensitivity of a variety of cancer cell lines”. In addition, the “enhancement of toxicity of MRP substrates” value with MRP-specific substrates was “positive; also recorded: have been found to enhance the toxicity of MRP-specific substrates”. Also, at MRP pump, the MRP-pump inhibitory activity entry is given as “have MRP-pump inhibitory activity”. For the same compound, on MRP pump (setting [3]), the inhibition at 49 µM came to 20%. Moreover, the inhibition at 98 µM at MRP pump (setting [3]) stood at 70%.

In general, inhibition refers to the percentage by which the read-out fell short of the control.
